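Five concentrations, 48 hours, 96-well plates. GI50 = concentration required for 50% inhibition of growth.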 Calls of active or inactive are those of the source. Rule as the data show it: active = GI50 up to about 1.1 µM and inactive = higher.
What was measured:
Assay in all cases: NCI anticancer screen, dose series, 48 h
A549 = tested on: A549
CAKI-1 = tested on: CAKI-1
COLO 205 = tested on: COLO 205
IGROV-1 = tested on: IGROV-1
KM12 = tested on: KM12
MDA-MB-435 = tested on: MDA-MB-435
MDA-N = tested on: MDA-N
MOLT-4 = tested on: MOLT-4
OVCAR-3 = tested on: OVCAR-3
PC-3 = tested on: PC-3
RPMI-8226 = tested on: RPMI-8226
RXF 393 = tested on: RXF 393
SF-268 = tested on: SF-268
SN12C = tested on: SN12C
SNB-19 = tested on: SNB-19
UACC-257 = tested on: UACC-257
UACC-62 = tested on: UACC-62
A498 = tested on: A498
ACHN = tested on: ACHN

SMILES | GI50 (A549) | GI50 (CAKI-1) | GI50 (COLO 205) | GI50 (IGROV-1) | GI50 (KM12) | GI50 (MDA-MB-435) | GI50 (MDA-N) | GI50 (MOLT-4) | GI50 (OVCAR-3) | GI50 (PC-3) | GI50 (RPMI-8226) | GI50 (RXF 393) | GI50 (SF-268) | GI50 (SN12C) | GI50 (SNB-19) | GI50 (UACC-257) | GI50 (UACC-62) | GI50 (A498) | GI50 (ACHN)
O=P1(c2ccccc2)c2ccccc2-c2ccccc21 | > 100 µM (inactive) | 81.8 µM (inactive) | > 100 µM (inactive) | > 100 µM (inactive) | > 100 µM (inactive) | > 100 µM (inactive) | 97.7 µM (inactive) | 47.5 µM (inactive) | 71 µM (inactive) | 55.3 µM (inactive) | 74.1 µM (inactive) | 93.8 µM (inactive) | > 100 µM (inactive) | > 100 µM (inactive) | > 100 µM (inactive) | > 100 µM (inactive) | 82.2 µM (inactive) | – | –
NCCCN(CCCCN(CCCN)Cc1ccccc1)Cc1ccccc1 | 74.5 µM (inactive) | 15.8 µM (inactive) | 32.4 µM (inactive) | 17.1 µM (inactive) | 30.4 µM (inactive) | 56.1 µM (inactive) | 18.4 µM (inactive) | 20.1 µM (inactive) | – | – | > 100 µM (inactive) | 85.3 µM (inactive) | 14.3 µM (inactive) | 16 µM (inactive) | 10.7 µM (inactive) | 62.1 µM (inactive) | > 100 µM (inactive) | > 100 µM (inactive) | 32.4 µM (inactive)
CC(O)C(O)C(O)C(/C=N\Nc1ccccc1)=N/Nc1ccccc1 (stereo unspecified) | 11.4 µM (inactive) | 2.18 µM (inactive) | 14.3 µM (inactive) | 8.49 µM (inactive) | 4.7 µM (inactive) | 13.4 µM (inactive) | 12.6 µM (inactive) | 18.7 µM (inactive) | 8.55 µM (inactive) | 15.8 µM (inactive) | 18.3 µM (inactive) | – | 10.2 µM (inactive) | 16 µM (inactive) | 15.7 µM (inactive) | – | 10 µM (inactive) | 9.02 µM (inactive) | 10.8 µM (inactive)
COc1cc(-c2coc3c(OC)c(OC4OC(COC5OC(C)C(O)C(O)C5O)C(O)C(O)C4O)c(OC)c(O)c3c2=O)cc(C)c1O (stereo unspecified) | 23.8 µM (inactive) | 18 µM (inactive) | 19.6 µM (inactive) | 17 µM (inactive) | 11.7 µM (inactive) | 16 µM (inactive) | 0.873 µM (active) | 3.73 µM (inactive) | 13.7 µM (inactive) | 24.8 µM (inactive) | – | 13 µM (inactive) | 19.4 µM (inactive) | 1.68 µM (inactive) | 13.8 µM (inactive) | 22.3 µM (inactive) | 14.3 µM (inactive) | – | 21.2 µM (inactive)
Cc1cccc2c(=O)c3cccc(CC(=O)O)c3oc12 | > 100 µM (inactive) | > 100 µM (inactive) | > 100 µM (inactive) | > 100 µM (inactive) | > 100 µM (inactive) | > 100 µM (inactive) | > 100 µM (inactive) | > 100 µM (inactive) | > 100 µM (inactive) | > 100 µM (inactive) | > 100 µM (inactive) | – | > 100 µM (inactive) | > 100 µM (inactive) | > 100 µM (inactive) | > 100 µM (inactive) | > 100 µM (inactive) | > 100 µM (inactive) | > 100 µM (inactive)
Nc1ccc(Nc2cc(O)nc(O)n2)cc1 | > 100 µM (inactive) | > 100 µM (inactive) | – | > 100 µM (inactive) | > 100 µM (inactive) | > 100 µM (inactive) | > 100 µM (inactive) | > 100 µM (inactive) | > 100 µM (inactive) | > 100 µM (inactive) | > 100 µM (inactive) | – | > 100 µM (inactive) | > 100 µM (inactive) | > 100 µM (inactive) | > 100 µM (inactive) | > 100 µM (inactive) | > 100 µM (inactive) | > 100 µM (inactive)
c1ccc([P+](CCSCCSCC[P+](c2ccccc2)(c2ccccc2)c2ccccc2)(c2ccccc2)c2ccccc2)cc1 | > 100 µM (inactive) | – | > 100 µM (inactive) | > 100 µM (inactive) | > 100 µM (inactive) | > 100 µM (inactive) | > 100 µM (inactive) | > 100 µM (inactive) | > 100 µM (inactive) | – | – | > 100 µM (inactive) | > 100 µM (inactive) | > 100 µM (inactive) | > 100 µM (inactive) | > 100 µM (inactive) | 64.4 µM (inactive) | > 100 µM (inactive) | > 100 µM (inactive)
O=C(O)c1cc(NCc2cc(O)ccc2O)ccc1O [LAVENDUSTIN C] | > 100 µM (inactive) | > 100 µM (inactive) | > 100 µM (inactive) | > 100 µM (inactive) | > 100 µM (inactive) | 27 µM (inactive) | 24.8 µM (inactive) | – | > 100 µM (inactive) | > 100 µM (inactive) | – | > 100 µM (inactive) | > 100 µM (inactive) | > 100 µM (inactive) | > 100 µM (inactive) | > 100 µM (inactive) | > 100 µM (inactive) | > 100 µM (inactive) | > 100 µM (inactive)

Reference: ChEMBL document CHEMBL1201862, “PubChem BioAssay data set” (2004)
